Data from US20230016034A1, “ENHANCEMENT OF iPSC-DERIVED EFFECTOR IMMUNE CELL USING SMALL COMPOUNDS” (Fate Therapeutics, Inc., priority 2019, published 2023).

Tested on: Nalm6-luciferase cells
Experiment: In vivo efficacy of dexamethasone-treated post-thaw CD19-CAR iT cells, systemic Nalm6-luciferase model
Set-up: species or system NSG female mice
Conditions: p>0.1
Excerpt: Tumor progression was monitored at days 7, 14 and 20 post tumor injection by bioluminescent imaging. CAR-iT cells treated with dexamethasone (FIG. 8B) were compared with control cells without dexamethasone treatment (FIG. 8A) in cultures for iv/iv in vivo efficacy.

SMILES: C[C@@H]1C[C@H]2[C@@H]3CCC4=CC(=O)C=C[C@]4(C)[C@@]3(F)[C@@H](O)C[C@]2(C)[C@@]1(O)C(=O)CO [dexamethasone]
- Days of survival: > 80 days
